Target: T1, angiotensin-converting enzyme (ACE) (Ovis aries, UniProt A0ACI6QSL6)
T1 sequence (A0ACI6QSL6 34-1310): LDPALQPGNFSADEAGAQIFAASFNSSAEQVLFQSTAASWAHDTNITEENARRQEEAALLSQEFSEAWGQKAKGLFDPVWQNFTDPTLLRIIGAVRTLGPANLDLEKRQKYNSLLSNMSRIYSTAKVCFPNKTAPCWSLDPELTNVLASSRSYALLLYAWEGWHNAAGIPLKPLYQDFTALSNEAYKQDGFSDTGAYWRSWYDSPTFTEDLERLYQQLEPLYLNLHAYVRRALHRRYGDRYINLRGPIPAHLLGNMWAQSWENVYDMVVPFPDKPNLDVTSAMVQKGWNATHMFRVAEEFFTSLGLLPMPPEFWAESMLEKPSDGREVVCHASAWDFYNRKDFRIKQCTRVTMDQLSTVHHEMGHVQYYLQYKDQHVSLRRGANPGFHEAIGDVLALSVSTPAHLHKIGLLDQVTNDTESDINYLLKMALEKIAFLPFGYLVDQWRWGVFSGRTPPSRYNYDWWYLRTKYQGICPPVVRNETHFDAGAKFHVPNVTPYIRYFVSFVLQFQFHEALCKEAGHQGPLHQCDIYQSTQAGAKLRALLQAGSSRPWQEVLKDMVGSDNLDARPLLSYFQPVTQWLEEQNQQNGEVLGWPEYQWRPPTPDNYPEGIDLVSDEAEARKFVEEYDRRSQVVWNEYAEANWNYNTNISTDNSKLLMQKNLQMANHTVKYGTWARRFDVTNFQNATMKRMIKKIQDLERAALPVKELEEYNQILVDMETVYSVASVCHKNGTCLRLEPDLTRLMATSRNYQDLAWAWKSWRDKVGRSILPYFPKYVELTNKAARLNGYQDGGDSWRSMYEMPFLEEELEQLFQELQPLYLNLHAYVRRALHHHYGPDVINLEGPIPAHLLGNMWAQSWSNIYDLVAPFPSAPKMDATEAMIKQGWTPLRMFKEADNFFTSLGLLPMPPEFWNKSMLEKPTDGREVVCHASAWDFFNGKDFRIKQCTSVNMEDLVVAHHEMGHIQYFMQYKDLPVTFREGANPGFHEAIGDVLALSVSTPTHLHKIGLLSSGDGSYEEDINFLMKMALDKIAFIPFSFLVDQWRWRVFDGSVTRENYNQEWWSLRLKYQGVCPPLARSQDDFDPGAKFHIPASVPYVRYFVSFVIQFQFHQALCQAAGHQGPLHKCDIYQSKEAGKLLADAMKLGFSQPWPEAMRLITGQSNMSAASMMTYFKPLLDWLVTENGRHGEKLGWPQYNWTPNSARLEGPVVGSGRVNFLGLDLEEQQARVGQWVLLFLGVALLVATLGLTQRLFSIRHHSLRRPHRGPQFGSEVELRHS
Assay: spectrophotometric FAPGG hydrolysis assay at […] nm
Format: biochemical

Ki: 0.39 nM
SMILES: C[C@H](CS)C(=O)N1CCC[C@H]1C(=O)O [captopril]

Source: publication PMC8176444 (Molecular Biology Reports, 2021)
